Test results: article PMC10419799, “Modes of Action of a Novel c-MYC Inhibiting 1,2,4-Oxadiazole Derivative in Leukemia and Breast Cancer Cells” (Molecules, 2023)

Target: T1, c-MYC (Homo sapiens, UniProt P01106)
T1 construct: human recombinant c-MYC protein (Abcam ab169901)
Test: microscale thermophoresis with RED-NHS labelled recombinant c-MYC
Assay type: binding

T1 sequence (P01106 16-454): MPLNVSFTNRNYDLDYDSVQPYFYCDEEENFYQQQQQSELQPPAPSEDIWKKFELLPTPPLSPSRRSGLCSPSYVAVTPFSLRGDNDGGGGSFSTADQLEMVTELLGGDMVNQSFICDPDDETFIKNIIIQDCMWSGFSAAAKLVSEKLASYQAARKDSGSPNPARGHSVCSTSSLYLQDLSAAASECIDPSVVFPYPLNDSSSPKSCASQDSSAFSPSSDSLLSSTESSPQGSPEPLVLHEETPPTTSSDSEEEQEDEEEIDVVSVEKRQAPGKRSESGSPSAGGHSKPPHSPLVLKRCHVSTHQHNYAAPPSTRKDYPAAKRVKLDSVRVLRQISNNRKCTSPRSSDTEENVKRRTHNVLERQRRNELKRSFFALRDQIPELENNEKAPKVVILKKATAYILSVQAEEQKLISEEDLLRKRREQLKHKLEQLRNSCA

Kd: 1080 ± 100 nM
SMILES: Cc1ccc(NC(=O)N2Cc3[nH]cnc3C[C@H]2c2nc(-c3ccc4ccccc4c3)no2)cc1 [ZINC15675948, (6S)-N-(4-methylphenyl)-6-(3-naphthalen-2-yl-1,2,4-oxadiazol-5-yl)-3,4,6,7-tetrahydroimidazo [4,5-c]pyridine-5-carboxamide]
